How the values were obtained:
EGFR (ErbB1) T790M L858R = EGFR (ErbB1) T790M L858R (Homo sapiens (Human), UniProt P00533, L858R/T790M); assay: Z'-LYTE kinase inhibition assay, EGFR L858R/T790M; format: biochemical; details: for inhibition at 0.0137 µM: read-out: % inhibition against EGFR L858R/T790M (Compound at 0.0137 μM); for IC50: read-out: IC50 against EGFR L858R/T790M; for inhibition at 1 µM: read-out: % inhibition against EGFR L858R/T790M (Compound at 1 μM)
Outline: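 IC50 taken from 10-point, 3-fold serial dilutions tested in 1% DMSO. The mutant kinase and peptide were prepared in HEPES pH 6.5 buffer with BRIJ-35, MgCl2, EGTA and NaN3, then reacted with ATP for 1 h at room temperature. Development reagent was added for a further hour before the fluorescence readout.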

A431 cells = assay: cells; details: Homo sapiens, A-431, 72 h, read-out: IC50 in A431 cells
H1299 cells = assay: Inhibition of cancer cell growth, MTT assay, H1299; details: Homo sapiens, NCI-H1299, 72 h, read-out: IC50 in H1299 cells
Experimental: Inhibition of cell growth by compounds was measured using MTT assay (Mosmann, T., Journal of Immunological Methods, 1983, 65, 55-63). Tumor cell lines were purchased from ATCC (American Type Culture Collection, Manassas, Va.). All cell lines were maintained in RPMI 1640 (Hyclone) supplemented with 10% fetal bovine serum (FBS, Hyclone), glutamine (2 mM, Hyclone), and antibiotics (penicillin 100 U/mL and streptomycin 50 μg/mL) at 37° C. in a humidified atmosphere of 5% CO2 in air. Taxol (as a positive control. Sigma) and compounds were dissolved in DMSO (Sigma), and the final concentration of DMSO in the medium was 1%. Tumor cells were plated in 96-well plates at densities of about 4000 cells/well of a 96-well plate and allowed to adhere/grow for 24 h. They were then treated with various concentrations of drug for 72 h, 3-(4,5-Dimethylthiazol-2-yl)-2,5-diphenyltetrazolium bromide (MTT, Sigma) was used to determine the number of viable cells at the time of compound addition and the number of cells remaining after 72 h compound exposure. The number of cells remaining after 72 h was compared to the number of viable cells at the time of compound addition by measuring the absorbance at 570 nm, allowing for the calculation of growth inhibition.
(§4) All concentrations of compounds were tested in triplicate and controls were averaged over 4 wells. IC50 was calculated by plotting the concentration of compound vs the percentage of inhibition in treated wells using GraphPad Prism 5.

EGFR (ErbB1) = EGFR (ErbB1) (Homo sapiens (Human), UniProt P00533); assay: Z'-LYTE kinase inhibition assay, EGFR; format: biochemical; details: for inhibition at 0.041 µM: read-out: % inhibition against EGFR (Compound at 0.041 μM); for IC50: read-out: IC50 against EGFR; for inhibition at 1 µM: read-out: % inhibition against EGFR (Compound at 1 μM)
Outline: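 IC50 values derived from 10-point, 3-fold compound dilution series (1% DMSO final) using Z'-LYTE fluorescence readout after 60-min development. Reaction: EGFR (1.1-5.25 ng) with 2 μM peptide, 60 min at room temperature in HEPES pH 7.5 buffer containing MgCl2, MnCl2, EGTA, DTT and BRIJ-35.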

BTK = BTK (Homo sapiens (Human), UniProt Q06187); assay: Z'-LYTE kinase inhibition assay, BTK; format: biochemical; details: for IC50: read-out: IC50 against BTK; for inhibition at 0.041 µM: compound at 0.041 μM, read-out: % inhibition against BTK
Outline: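 Z'-LYTE FRET assay with Tyr 01 peptide in 50 mM HEPES pH 7.5, 10 mM MgCl2, 1 mM EGTA, 0.01% BRIJ-35. Compounds in 1% DMSO were tested as 10-point, 3-fold titrations.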

H1975 cells = assay: Inhibition of cancer cell growth, MTT assay, H1975; details: Homo sapiens, NCI-H1975, 72 h, read-out: IC50 in H1975 cells
H3255 cells = assay: Inhibition of cancer cell growth, MTT assay, H3255; details: Homo sapiens, NCI-H3255, 72 h, read-out: IC50 in H3255 cells
JAK2 = JAK2 (Homo sapiens (Human), UniProt O60674); assay: Z'-LYTE kinase inhibition assay, JAK2; format: biochemical; details: compound at 0.041 μM; read-out: % inhibition against JAK2
Experimental: (§1) Inhibitory activities of compounds against BTK, EGFR and EGFR mutants (EGFR L858R, EGFR T790M, EGFR L858R/T790M), FGFR1, FGFR2, JAK2, JAK3 and KDR were measured by Invitrogen using Z'-LYTE® Method as briefly described in the following.
(§2) Test Compounds are screened in 1% DMSO (final) in the well. For 10 point titrations, 3-fold serial dilutions are conducted from the starting concentration. All ATP Solutions are diluted to a 4× working concentration in Kinase Buffer (50 mM HEPES pH 7.5, 0.01% BRIJ-35, 10 mM MgCl2, 1 mM EGTA). Peptide/Kinase Mixtures are diluted to a 2× working concentration in the appropriate Kinase Buffers as described below.
(v) Peptide/Kinase Mixtures for Measurement of JAK2:
The 2×JAK2/Tyr 06 mixture is prepared in 50 mM HEPES pH 7.5, 0.01% BRIJ-35, 10 mM MgCl2, 1 mM EGTA. The final 10 μL Kinase Reaction consists of 0.06-0.81 ng JAK2 and 2 μM Tyr 06 in 50 mM HEPES pH 7.5, 0.01% BRIJ-35, 10 mM MgCl2, 1 mM EGTA. After the 1 hour Kinase Reaction incubation, 5 μL of a 1:64 dilution of Development Reagent A is added.
(§3) Reaction starts by 30-second shaking of mixture consisting of 2.5 μL 4× test compound, […] 2× kinase reaction mixture and 2.5 μL 4×ATP Solution on Bar-coded Corning, low volume NBS, black 384-well plate (Corning Cat. #3676). Then the mixture is incubated for 60-minute at room temperature for the kinase reaction, followed by addition of 5 μL of a 1:1024 dilution of development reagent A and 30-second plate shake. The mixture is then incubated for another 60-minute at room temperature for development reaction. Finally fluorescence is read by plate reader.

HCC827 cells = assay: cells; details: Homo sapiens, HCC827, 72 h, read-out: IC50 in HCC827 cells
Experimental: Taxol (as a positive control. Sigma) and compounds were dissolved in DMSO (Sigma), and the final concentration of DMSO in the medium was 1%. Tumor cells were plated in 96-well plates at densities of about 4000 cells/well of a 96-well plate and allowed to adhere/grow for 24 h. They were then treated with various concentrations of drug for 72 h, 3-(4,5-Dimethylthiazol-2-yl)-2,5-diphenyltetrazolium bromide (MTT, Sigma) was used to determine the number of viable cells at the time of compound addition and the number of cells remaining after 72 h compound exposure. The number of cells remaining after 72 h was compared to the number of viable cells at the time of compound addition by measuring the absorbance at 570 nm, allowing for the calculation of growth inhibition.
as §4
The scale utilized in Tables 5 is as follows: +++ less than 100 nM; ++ between 100 nM and 500 nM; and + greater than 500 nM.

FGFR1 = FGFR1 (Homo sapiens (Human), UniProt P11362); assay: Z'-LYTE kinase inhibition assay, FGFR1; format: biochemical; details: compound at 0.041 μM; read-out: % inhibition against FGFR1
Experimental: as §1, §2
(v) Peptide/Kinase Mixtures for Measurement of FGFR1:
The 2×FGFR1/Tyr 04 mixture is prepared in 50 mM HEPES pH 7.5, 0.01% BRIJ-35, 10 mM MgCl2, 4 mM MnCl2, 1 mM EGTA, 2 mM DTT. The final 10 μL Kinase Reaction consists of 0.41-3.5 ng FGFR1 and 2 μM Tyr 04 in 50 mM HEPES pH 7.5, 0.01% BRIJ-35, 10 mM MgCl2, 2 mM MnCl2, 1 mM EGTA, 1 mM DTT. After the 1 hour Kinase Reaction incubation, 5 μL of a 1:64 dilution of Development Reagent B is added.
as §3
To determine IC50 of a compound against EGFR, EGFR mutant and other kinases, a series of concentrations of the compound were tested for the inhibition. […] The scale utilized in Table 4 is as follows: +++ less than 100 nM, ++ 100-500 nM and + greater than 500 nM.

Sequence of EGFR (ErbB1) T790M L858R (P00533 25-1210 T790M/L858R): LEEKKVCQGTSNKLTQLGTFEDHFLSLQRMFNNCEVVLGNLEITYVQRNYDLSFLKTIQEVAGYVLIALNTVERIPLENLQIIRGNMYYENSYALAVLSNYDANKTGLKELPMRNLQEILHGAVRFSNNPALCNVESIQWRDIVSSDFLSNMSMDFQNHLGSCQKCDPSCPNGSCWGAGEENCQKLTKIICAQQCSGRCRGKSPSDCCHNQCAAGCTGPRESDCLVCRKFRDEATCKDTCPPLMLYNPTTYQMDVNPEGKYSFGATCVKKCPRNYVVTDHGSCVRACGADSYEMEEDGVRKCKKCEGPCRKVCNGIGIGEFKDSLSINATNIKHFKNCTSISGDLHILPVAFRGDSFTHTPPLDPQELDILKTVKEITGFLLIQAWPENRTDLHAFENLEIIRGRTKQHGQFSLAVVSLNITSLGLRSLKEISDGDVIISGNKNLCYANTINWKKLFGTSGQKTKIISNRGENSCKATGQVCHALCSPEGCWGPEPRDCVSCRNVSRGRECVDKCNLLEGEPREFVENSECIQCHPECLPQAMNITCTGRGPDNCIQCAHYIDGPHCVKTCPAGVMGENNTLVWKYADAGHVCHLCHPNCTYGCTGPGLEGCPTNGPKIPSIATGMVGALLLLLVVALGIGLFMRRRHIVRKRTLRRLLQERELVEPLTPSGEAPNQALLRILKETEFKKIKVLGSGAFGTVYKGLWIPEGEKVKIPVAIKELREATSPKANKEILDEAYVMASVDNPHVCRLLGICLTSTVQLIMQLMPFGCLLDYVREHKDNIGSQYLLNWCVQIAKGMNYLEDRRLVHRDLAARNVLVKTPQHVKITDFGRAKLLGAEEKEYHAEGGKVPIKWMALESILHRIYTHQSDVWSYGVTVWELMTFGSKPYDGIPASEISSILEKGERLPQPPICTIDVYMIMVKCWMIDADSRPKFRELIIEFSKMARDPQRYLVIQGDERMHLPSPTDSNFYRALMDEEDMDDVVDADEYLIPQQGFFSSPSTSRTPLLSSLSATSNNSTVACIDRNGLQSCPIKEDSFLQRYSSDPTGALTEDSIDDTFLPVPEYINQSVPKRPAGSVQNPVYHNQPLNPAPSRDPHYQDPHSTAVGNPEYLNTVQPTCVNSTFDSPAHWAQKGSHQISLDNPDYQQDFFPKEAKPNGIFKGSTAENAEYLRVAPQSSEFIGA
Sequence of FGFR1 (P11362 22-822): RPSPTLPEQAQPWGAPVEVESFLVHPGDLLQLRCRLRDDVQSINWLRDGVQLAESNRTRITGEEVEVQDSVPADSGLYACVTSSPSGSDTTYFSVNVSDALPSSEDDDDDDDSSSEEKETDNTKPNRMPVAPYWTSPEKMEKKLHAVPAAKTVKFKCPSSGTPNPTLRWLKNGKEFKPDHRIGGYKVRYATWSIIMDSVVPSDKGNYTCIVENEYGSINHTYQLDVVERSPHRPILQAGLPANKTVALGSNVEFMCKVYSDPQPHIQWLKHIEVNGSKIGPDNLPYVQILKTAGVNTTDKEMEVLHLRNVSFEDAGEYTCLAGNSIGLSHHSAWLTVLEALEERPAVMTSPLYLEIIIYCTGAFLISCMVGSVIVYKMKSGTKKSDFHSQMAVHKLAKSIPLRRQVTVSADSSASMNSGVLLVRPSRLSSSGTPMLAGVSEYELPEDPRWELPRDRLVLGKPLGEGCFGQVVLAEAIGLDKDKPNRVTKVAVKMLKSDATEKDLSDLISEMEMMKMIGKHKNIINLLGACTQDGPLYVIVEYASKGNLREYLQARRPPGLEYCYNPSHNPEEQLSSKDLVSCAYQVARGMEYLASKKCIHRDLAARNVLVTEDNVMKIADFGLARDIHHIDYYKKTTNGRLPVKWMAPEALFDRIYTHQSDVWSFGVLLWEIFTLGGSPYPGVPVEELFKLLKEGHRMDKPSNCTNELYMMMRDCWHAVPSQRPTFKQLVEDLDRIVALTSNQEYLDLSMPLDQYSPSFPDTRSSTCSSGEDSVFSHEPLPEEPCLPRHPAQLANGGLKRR
Sequence of EGFR (ErbB1) (P00533 25-1210): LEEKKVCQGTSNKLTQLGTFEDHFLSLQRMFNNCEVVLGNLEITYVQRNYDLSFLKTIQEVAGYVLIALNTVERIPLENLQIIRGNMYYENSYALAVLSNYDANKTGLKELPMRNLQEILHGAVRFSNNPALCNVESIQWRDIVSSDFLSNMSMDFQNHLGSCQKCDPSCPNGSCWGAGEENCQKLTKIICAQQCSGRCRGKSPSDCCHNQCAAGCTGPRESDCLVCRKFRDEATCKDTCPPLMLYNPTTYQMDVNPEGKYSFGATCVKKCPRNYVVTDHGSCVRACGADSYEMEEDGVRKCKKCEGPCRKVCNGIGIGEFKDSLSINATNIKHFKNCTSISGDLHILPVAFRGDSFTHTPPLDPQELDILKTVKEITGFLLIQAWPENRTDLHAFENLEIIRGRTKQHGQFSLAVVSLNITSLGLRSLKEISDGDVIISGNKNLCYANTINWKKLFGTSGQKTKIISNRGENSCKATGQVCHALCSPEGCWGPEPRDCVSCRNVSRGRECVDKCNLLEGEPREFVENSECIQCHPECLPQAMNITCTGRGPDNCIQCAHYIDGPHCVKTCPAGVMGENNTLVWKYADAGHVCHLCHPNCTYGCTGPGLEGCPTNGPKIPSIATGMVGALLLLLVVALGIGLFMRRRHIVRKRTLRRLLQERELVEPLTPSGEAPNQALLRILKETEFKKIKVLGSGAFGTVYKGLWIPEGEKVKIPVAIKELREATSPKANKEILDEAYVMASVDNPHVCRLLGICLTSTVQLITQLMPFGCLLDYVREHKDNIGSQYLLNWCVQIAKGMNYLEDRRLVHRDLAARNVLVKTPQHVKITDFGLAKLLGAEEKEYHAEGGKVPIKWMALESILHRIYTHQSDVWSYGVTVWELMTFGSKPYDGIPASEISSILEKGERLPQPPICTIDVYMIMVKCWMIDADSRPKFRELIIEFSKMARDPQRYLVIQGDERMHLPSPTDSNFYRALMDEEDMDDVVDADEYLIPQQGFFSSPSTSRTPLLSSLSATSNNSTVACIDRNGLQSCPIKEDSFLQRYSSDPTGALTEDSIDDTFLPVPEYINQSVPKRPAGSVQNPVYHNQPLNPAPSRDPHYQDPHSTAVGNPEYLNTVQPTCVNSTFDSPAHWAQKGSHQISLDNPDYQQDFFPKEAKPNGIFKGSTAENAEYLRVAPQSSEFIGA
Sequence of JAK2 (O60674 whole entry): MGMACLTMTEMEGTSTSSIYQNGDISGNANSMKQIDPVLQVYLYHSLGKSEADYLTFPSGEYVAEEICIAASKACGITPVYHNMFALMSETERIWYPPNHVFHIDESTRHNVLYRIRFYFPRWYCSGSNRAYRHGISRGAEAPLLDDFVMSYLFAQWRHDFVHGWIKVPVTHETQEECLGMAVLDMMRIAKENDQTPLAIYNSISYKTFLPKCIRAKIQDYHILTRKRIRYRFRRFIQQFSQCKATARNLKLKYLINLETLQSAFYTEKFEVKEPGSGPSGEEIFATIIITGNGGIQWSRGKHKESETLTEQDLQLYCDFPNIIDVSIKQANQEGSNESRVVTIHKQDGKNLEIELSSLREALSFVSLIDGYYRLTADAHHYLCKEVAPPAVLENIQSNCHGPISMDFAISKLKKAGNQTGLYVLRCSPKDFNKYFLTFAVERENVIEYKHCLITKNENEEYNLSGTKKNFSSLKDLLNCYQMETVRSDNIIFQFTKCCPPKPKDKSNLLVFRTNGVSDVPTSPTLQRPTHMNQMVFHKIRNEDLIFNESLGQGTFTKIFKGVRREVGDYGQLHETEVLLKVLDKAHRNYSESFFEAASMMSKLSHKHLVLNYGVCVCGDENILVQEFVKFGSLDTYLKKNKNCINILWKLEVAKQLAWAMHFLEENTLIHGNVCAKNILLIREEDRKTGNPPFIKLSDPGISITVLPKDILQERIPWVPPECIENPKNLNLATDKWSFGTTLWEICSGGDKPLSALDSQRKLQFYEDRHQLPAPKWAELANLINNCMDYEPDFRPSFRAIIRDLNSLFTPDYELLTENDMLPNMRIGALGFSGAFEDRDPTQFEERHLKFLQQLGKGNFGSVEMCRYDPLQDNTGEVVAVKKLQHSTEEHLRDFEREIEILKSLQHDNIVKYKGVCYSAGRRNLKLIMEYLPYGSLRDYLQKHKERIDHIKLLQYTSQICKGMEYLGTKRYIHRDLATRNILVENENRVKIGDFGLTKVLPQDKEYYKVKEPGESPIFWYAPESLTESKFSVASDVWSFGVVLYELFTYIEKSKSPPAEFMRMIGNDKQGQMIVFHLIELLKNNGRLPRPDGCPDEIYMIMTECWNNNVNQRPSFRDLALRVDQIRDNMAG
Sequence of BTK (Q06187 whole entry): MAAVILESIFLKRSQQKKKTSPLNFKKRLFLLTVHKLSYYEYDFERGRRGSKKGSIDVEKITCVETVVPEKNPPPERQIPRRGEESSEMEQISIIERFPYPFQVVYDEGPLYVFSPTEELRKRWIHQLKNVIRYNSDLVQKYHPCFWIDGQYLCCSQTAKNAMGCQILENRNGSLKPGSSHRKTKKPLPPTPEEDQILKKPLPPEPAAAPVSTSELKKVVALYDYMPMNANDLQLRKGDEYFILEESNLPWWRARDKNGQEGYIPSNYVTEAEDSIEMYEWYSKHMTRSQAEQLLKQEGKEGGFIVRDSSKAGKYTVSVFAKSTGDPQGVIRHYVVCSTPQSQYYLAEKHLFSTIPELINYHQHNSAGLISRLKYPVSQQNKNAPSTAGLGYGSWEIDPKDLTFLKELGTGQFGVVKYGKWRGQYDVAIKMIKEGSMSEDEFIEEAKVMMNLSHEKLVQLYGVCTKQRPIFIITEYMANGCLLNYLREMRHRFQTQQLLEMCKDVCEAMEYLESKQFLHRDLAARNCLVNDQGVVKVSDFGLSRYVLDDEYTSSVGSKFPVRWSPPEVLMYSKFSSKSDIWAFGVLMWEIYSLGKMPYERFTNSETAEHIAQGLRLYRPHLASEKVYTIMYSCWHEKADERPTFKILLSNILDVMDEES

Compound | inhibition at 0.0137 µM (EGFR (ErbB1) T790M L858R) [%] | inhibition at 0.041 µM (EGFR (ErbB1)) [%] | IC50 (H1975 cells) [nM] | inhibition at 0.041 µM (JAK2) [%] | inhibition at 1 µM (EGFR (ErbB1) T790M L858R) [%] | inhibition at 1 µM (EGFR (ErbB1)) [%] | IC50 (HCC827 cells) [nM] | inhibition at 0.041 µM (BTK) [%] | inhibition at 0.041 µM (FGFR1) [%] | IC50 (EGFR (ErbB1) T790M L858R) [nM] | IC50 (A431 cells) [nM] | IC50 (H1299 cells) [nM] | IC50 (EGFR (ErbB1)) [nM] | IC50 (BTK) [nM] | IC50 (H3255 cells) [nM]
C=CC(=O)Nc1cccc(-c2cccc3cnc(Nc4ccc(NC5CN(CCO)C5)cc4)nc23)c1 [Example C099, N-(3-(2-((4-((1-(2-hydroxyethyl)azetidin-3-yl)amino)phenyl)amino)quinazolin-8-yl)phenyl)acrylamide] | > 50 | > 50 | < 100 | – | – | – | – | – | – | < 100 | 100 to 500 | > 500 | < 100 | < 100 | > 500
C=CC(=O)Nc1cncc(-c2cccc3cnc(Nc4ccc(N5CCN(C)CC5)cc4)nc23)c1 [Example C040, N-(5-(2-((4-(4-methylpiperazin-1-yl)phenyl)amino)quinazolin-8-yl)pyridin-3-yl)acrylamide] | – | > 50 | < 100 | < 50 | – | – | < 100 | > 50 | – | < 100 | 100 to 500 | 100 to 500 | < 100 | – | –
C=CC(=O)Nc1cccc(-c2cccc3cnc(Nc4ccc(N5CCN(C)CC5)cc4)nc23)c1Cl [Example C054, N-(2-chloro-3-(2-((4-(4-methylpiperazin-1-yl)phenyl)amino)quinazolin-8-yl)phenyl)acrylamide] | > 50 | > 50 | 100 to 500 | > 50 | – | – | – | > 50 | – | < 100 | > 500 | – | – | – | –
C=CC(=O)Nc1cccc(-c2cccc3cnc(Nc4ccc(N5CCN(C(C)=O)CC5)cc4)nc23)c1 [Example C032, N-(3-(2-((4-(4-acetylpiperazin-1-yl)phenyl)amino)quinazolin-8-yl)phenyl)acrylamide] | – | – | 100 to 500 | > 50 | – | > 50 | < 100 | > 50 | – | < 100 | 100 to 500 | > 500 | – | – | –
C=CC(=O)Nc1cccc(-c2cccc3cnc(Nc4ccc(N5CCN(C)CC5)c(C(N)=O)c4)nc23)c1 [Example C085, 5-((8-(3-acrylamidophenyl)quinazolin-2-yl)amino)-2-(4-methylpiperazin-1-yl)benzamide] | – | < 50 | < 100 | – | – | – | – | – | – | < 100 | 100 to 500 | > 500 | – | < 100 | > 500

Now from value to compound, other results behind:

inhibition at 0.0137 µM (EGFR (ErbB1) T790M L858R) [%] | inhibition at 0.041 µM (EGFR (ErbB1)) [%] | IC50 (H1975 cells) [nM] | inhibition at 0.041 µM (JAK2) [%] | inhibition at 1 µM (EGFR (ErbB1) T790M L858R) [%] | inhibition at 1 µM (EGFR (ErbB1)) [%] | IC50 (HCC827 cells) [nM] | inhibition at 0.041 µM (BTK) [%] | inhibition at 0.041 µM (FGFR1) [%] | Compound | IC50 (EGFR (ErbB1) T790M L858R) [nM] | IC50 (A431 cells) [nM] | IC50 (H1299 cells) [nM] | IC50 (EGFR (ErbB1)) [nM] | IC50 (BTK) [nM] | IC50 (H3255 cells) [nM]
– | – | 100 to 500 | < 50 | > 50 | > 50 | < 100 | > 50 | – | C=CC(=O)Nc1cccc(-c2c(C)ccc3cnc(Nc4ccc(N5CCOCC5)cc4)nc23)c1 [Example C033, N-(3-(7-methyl-2-((4-morpholinophenyl)amino)quinazolin-8-yl)phenyl)acrylamide] | – | – | > 500 | – | – | –
– | – | > 500 | < 50 | < 50 | < 50 | > 500 | < 50 | < 50 | Fc1ccc(OCCN2CCOCC2)cc1-c1cccc2cnc(Nc3ccc(N4CCOCC4)cc3)nc12 [Example C023, 8-(2-fluoro-5-(2-morpholinoethoxy)phenyl)-N-(4-morpholinophenyl)quinazolin-2-amine] | – | – | – | – | – | –
– | – | > 500 | > 50 | > 50 | – | < 100 | > 50 | > 50 | CC(=O)Nc1cccc(-c2cccc3cnc(Nc4ccc(N5CCN(C)CC5)cc4)nc23)c1 [Example C022, N-(3-(2-((4-(4-methylpiperazin-1-yl)phenyl)amino)quinazolin-8-yl)phenyl)acetamide] | – | – | – | – | – | –
> 50 | < 50 | 100 to 500 | < 50 | – | – | – | < 50 | – | C=CC(=O)Nc1cccc(-c2cccc3cnc(Nc4ccc(N5CCN(C)CC5)nc4OC)nc23)c1 [Example C055, N-(3-(2-((2-methoxy-6-(4-methylpiperazin-1-yl)pyridin-3-yl)amino)quinazolin-8-yl)phenyl)acrylamide] | – | 100 to 500 | – | – | – | –
– | – | > 500 | > 50 | > 50 | – | > 500 | < 50 | > 50 | Clc1ccccc1-c1cccc2cnc(Nc3ccc(N4CCNCC4)cc3)nc12 [Example C026, 8-(2-chlorophenyl)-N-(4-(piperazin-1-yl)phenyl)quinazolin-2-amine] | – | – | – | – | – | –
– | – | > 500 | – | – | – | < 100 | – | < 50 | C=CC(=O)Nc1cccc(-c2cccc3cnc(Nc4ccc(N5CCN(C(C)=O)CC5)nc4)nc23)c1 [Example C036, N-(3-(2-((6-(4-acetylpiperazin-1-yl)pyridin-3-yl)amino)quinazolin-8-yl)phenyl)acrylamide] | – | – | > 500 | – | – | –
